Measurements as given in US8409602B2, “Sealants for fetal membrane repair” (Northwestern University, priority 2009, dated 2013).

Experiments:
fetal membranes [1] = experiment: Direct contact-induced apoptosis (TUNEL) in fetal membranes; assay type: cell-based
Procedure: Toxicity tests. Toxicity of sealants for fetal membrane cells was evaluated using direct contact and elution tests, as per International Organization for Standardization (ISO) 10993-5 guidelines.
Direct contact cytotoxicity. […] 4.5 software (Carl Zeiss).

fetal membranes [2] = tested on: fetal membranes
Procedure: Direct contact cytotoxicity. Direct contact studies were performed with term fetal membranes obtained from three cases. The amniotic layer was chosen for sealant application (FIG. 1A) because this layer was proposed to be the strength-bearing layer of fetal membranes and major determinant for PPROM.^31 2×1 cm patches of freshly harvested fetal membranes were placed into wells of 6-well plates with amnion layer up. […] Membranes covered with sealant were covered with 3 mL culture medium (Ham's F-12/DMEM supplemented with 10% FBS, 100 U/ml penicillin, and 100 μg/ml streptomycin) and cultured for 24 h at 37° C. […] Deparaffinized sections were either stained with hematoxylin-eosin (H/E), or stained for apoptotic cells using TUNEL technology (Terminal deoxynucleotidyl transferase dUTP nick end labeling; In Situ Cell Death Detection Kit, Fluorescein (Roche Diagnostics GmbH, Mannheim, Germany). For total cell counts, all cell nuclei were counterstained with 4′,6-diamidin-2′-phenylindol-dihydrochlorid (DAPI; Sigma, Buchs, Switzerland). The histologic images were taken with a Zeiss Axiovert 200M fluorescent microscope (Carl Zeiss, Goettingen, Germany) equipped with an Zeiss AxioCam MRc digital camera and analysed with AxioVision Rel. […] One tissue section per case was analysed, taking four optical fields per section for analysis.

epididymal fat pad = experiment: Material-only implantation at the murine epididymal fat pad; parameters: species or system C57BL6 mice; settings: mouse, in vivo
Procedure: Material-only implantation. Healthy, age-matched male C57BL6 mice (Jackson Laboratories, Bar Harbor, Me.) were anesthetized with nebulized isoflurane (IsoThesia; Butler/Abbott Laboratories, North Chicago, Ill.) and intraperitoneal injection of 2% Avertin (2,2,2-tribromoethanol, Sigma) at 0.3 mg/g body weight, prior to shaving of the abdomen and sterile preparation of the surgical site. The left epididymal fat pad was exposed through midline lower abdominal incision and manipulation of the tissue flap. This thin, well-vascularized tissue is analogous to the omentum of larger mammals and has dimensions on the order of 1.5—1.5 cm. Sterile, two-component mixing and adhesive delivery was achieved by a dual-barrel blending connector with mixer device (Micromedics, St Paul, Minn.) containing sterile-filtered 300 mg/mL cPEG and 0.056 M sodium periodate, respectively.
Following topical delivery of approximately […] adhesive, the deposition site was left undisturbed for 1 min. The sample site was then manually reinserted into the lower abdominal cavity and the incision closed with double-layer suture. Mice were monitored postoperatively until conscious recovery. At three days, two weeks, six weeks, and one-year post-implant, the adhesive and associated adipose tissue was surgically removed from anesthetized mice, prior to euthanasia. […]

four-armed catechol-terminated polyethylene glycol (cPEG) [cPEG adhesive]
apoptosis compared with control (fetal membranes [1]): did not enhance apoptosis over control | effect on membrane morphology (fetal membranes [2]): normal membrane morphology appeared maintained | immediate local reaction at deposition site (epididymal fat pad): no immediate visible inflammation or redness | non-specific postsurgical adhesions (epididymal fat pad): no evidence of non-specific postsurgical adhesions
